In patent US12552783B2, “Modulators of proteolysis and associated methods of use” (Arvinas Operations, Inc., priority 2018, dated 2026):

Assays:
Assay type in all cases: cell-based
KRas [1] = biological target: T1, KRas (Homo sapiens, UniProt P01116, G12C); assay: KRas degradation in H2030 cells by Western blot (data of Table 5); design: host or cells: NCI-H2030; details: H2030 cells serum starved 24 hours, KRas immunoblot; for H2030 Degradation at 0.3 uM: treated 24 hours with 0.3 uM; for H2030 Degradation at 1 uM: treated 24 hours with 1 uM; for H2030 Degradation at 3 uM: treated 24 hours with 3 uM
Description: Cell Lines, Antibodies, and Reagents. NCI-H2030 (CRL-5914) and SW1573 (CRL-2170) cells were purchased from ATCC. Both cell lines are homozygous for the G12C mutation in KRas. NCI-H2030 cells were cultured in RPMI-1640 medium containing 1% penicillin-streptomycin and 10% fetal bovine serum (FBS). SW1573 cells were cultured in DMEM containing 1% penicillin-streptomycin and 10% FBS. The KRas detection antibody (Cat. No. LS-C175665) was purchased from LifeSpan Biosciences and was used at a dilution of 1:2000. GAPDH was detected using an antibody purchased from Cell Signaling Technology (Cat. No. 5174) and was diluted 1:3000. Secondary anti-mouse and anti-rabbit detection antibodies were purchased from Cell Signaling Technology (Cat. Nos. 7076 and 7074, respectively).
Compound Treatment and Western Blotting of the Data of Table 5. H2030 cells in 12-well plates were serum starved for 24 hours, and then treated with 0.3 uM, 1 uM, and 3 uM of the indicated bifunctional compound, for 24 hours. Cells were lysed in a Cell Signaling Technology Cell Lysis Buffer (Cat. No. #9803) supplemented with protease inhibitors, and proteins were separated by SDS-PAGE. KRas was detected by immunoblotting using the LSBio antibody (Cat. No. LS-C175665).
DC50 is the half-maximal degradation concentration—i.e., the concentration at which 50% degradation is observed. DMax is the maximum degradation efficacy is achieved—i.e., the maximal degradation observed) degradation data.

KRas [2] = biological target: T1, KRas; assay: KRas degradation in SW1573 cells by Western blot, normalized to GAPDH (data of Table 14)
Procedure, shortened: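 SW1573 cells, homozygous for the KRas G12C mutation and maintained in DMEM with 10% FBS and 1% penicillin-streptomycin, were seeded in 12-well plates, allowed to attach overnight at 37° C. under 5% CO2, then serum-starved for 24 hours before compound exposure. KRas levels were measured by Western blot, normalized to GAPDH, and compared with DMSO controls to give percent degradation, DC50 and Dmax.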

KRas [3] = biological target: T1, KRas; assay: KRas degradation in NCI-H2030 cells by Western blot, normalized to GAPDH (data of Table 14); design: host or cells: NCI-H2030; details: for Dmax: NCI-H2030
Procedure, shortened: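 After overnight adherence and 24 h without FBS, compounds added at 0.3, 1 or 3 μM (0.1% DMSO) for 24 h (VHL-based) or 72 h (others). Western blot of RIPA lysates, KRas signal over GAPDH relative to DMSO; DC50 and DMax derived, or <25% scored visually.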

C=CC(=O)N1CCN(c2nc(NCCC(=O)N(C)CCOCCOCCOCCOCC(=O)N[C@H](C(=O)N3C[C@H](O)C[C@H]3C(=O)N[C@@H](C)c3ccc(-c4scnc4C)cc3)C(C)(C)C)nc3c(F)c(-c4cc(O)cc5ccccc45)c(Cl)cc23)CC1 [compound 1, (2S,4R)-1-((2S)-21-((4-(4-acryloylpiperazin-1-yl)-6-chloro-8-fluoro-7-(3-hydroxynaphthalen-1-yl)quinazolin-2-yl)amino)-2-(tert-butyl)-18-methyl-4,19-dioxo-6,9,12,15-tetraoxa-3,18-diazahenicosanoyl)-4-hydroxy-N-((S)-1-(4-(4-methylthiazol-5-yl)phenyl)ethyl) pyrrolidine-2-carboxamide]
H2030 Degradation at 0.3 uM (KRas [1]): C (C < 25)
H2030 Degradation at 1 uM (KRas [1]): A (A ≥ 50)
H2030 Degradation at 3 uM (KRas [1]): A (A ≥ 50)

C=CC(=O)N1CCN(c2nc(NCCC(=O)N(C)CCOCCOCCOCCOCCOCC(=O)N[C@H](C(=O)N3C[C@H](O)C[C@H]3C(=O)N[C@@H](C)c3ccc(-c4scnc4C)cc3)C(C)(C)C)nc3c(F)c(-c4cc(O)cc5ccccc45)c(Cl)cc23)CC1 [compound 2, (2S,4R)-1-((2S)-24-((4-(4-acryloylpiperazin-1-yl)-6-chloro-8-fluoro-7-(3-hydroxynaphthalen-1-yl)quinazolin-2-yl)amino)-2-(tert-butyl)-21-methyl-4,22-dioxo-6,9,12,15,18-pentaoxa-3,21-diazatetracosanoyl)-4-hydroxy-N-((S)-1-(4-(4-methylthiazol-5-yl)phenyl)ethyl) pyrrolidine-2-carboxamide]
H2030 Degradation at 0.3 uM (KRas [1]): C (C < 25)
H2030 Degradation at 1 uM (KRas [1]): A (A ≥ 50)
H2030 Degradation at 3 uM (KRas [1]): A (A ≥ 50)

C=CC(=O)N1CCN(c2nc(NCCC(=O)N(C)CCOCCOCCOCCNc3cccc4c3C(=O)N(C3CCC(=O)NC3=O)C4=O)nc3c(F)c(-c4cc(O)cc5ccccc45)c(Cl)cc23)CC1 (stereo not drawn) [compound 3, 3-((4-(4-acryloylpiperazin-1-yl)-6-chloro-8-fluoro-7-(3-hydroxynaphthalen-1-yl)quinazolin-2-yl)amino)-N-(2-(2-(2-(2-((2-(2,6-dioxopiperidin-3-yl)-1,3-dioxoisoindolin-4-yl)amino)ethoxy)ethoxy)ethoxy)ethyl)-N-methylpropanamide]
H2030 Degradation at 0.3 uM (KRas [1]): C (C < 25)
H2030 Degradation at 1 uM (KRas [1]): B (25 ≤ B < 50)
H2030 Degradation at 3 uM (KRas [1]): B (25 ≤ B < 50)

C=CC(=O)N1CCN(c2nc(NCCC(=O)N(C)CCOCCOCCOCC(=O)N[C@H](C(=O)N3C[C@H](O)C[C@H]3C(=O)N[C@@H](C)c3ccc(-c4scnc4C)cc3)C(C)(C)C)nc3c(F)c(-c4cc(O)cc5ccccc45)c(Cl)cc23)CC1 [compound 4, (2S,4R)-1-((2S)-18-((4-(4-acryloylpiperazin-1-yl)-6-chloro-8-fluoro-7-(3-hydroxynaphthalen-1-yl)quinazolin-2-yl)amino)-2-(tert-butyl)-15-methyl-4,16-dioxo-6,9,12-trioxa-3,15-diazaoctadecanoyl)-4-hydroxy-N-((S)-1-(4-(4-methylthiazol-5-yl)phenyl)ethyl) pyrrolidine-2-carboxamide]
H2030 Degradation at 0.3 uM (KRas [1]): C (C < 25)
H2030 Degradation at 1 uM (KRas [1]): B (25 ≤ B < 50)
H2030 Degradation at 3 uM (KRas [1]): B (25 ≤ B < 50)

C=CC(=O)N1CCN(c2nc(NCCC(=O)N(C)CCOCCOCCOCCOCCOc3ccc4c(c3)CN(C3CCC(=O)NC3=O)C4=O)nc3c(F)c(-c4cc(O)cc5ccccc45)c(Cl)cc23)CC1 (stereo not drawn) [compound 5, 3-((4-(4-acryloylpiperazin-1-yl)-6-chloro-8-fluoro-7-(3-hydroxynaphthalen-1-yl)quinazolin-2-yl)amino)-N-(14-((2-(2,6-dioxopiperidin-3-yl)-1-oxoisoindolin-5-yl)oxy)-3,6,9,12-tetraoxatetradecyl)-N-methylpropanamide]
H2030 Degradation at 0.3 uM (KRas [1]): C (C < 25)
H2030 Degradation at 1 uM (KRas [1]): B (25 ≤ B < 50)
H2030 Degradation at 3 uM (KRas [1]): B (25 ≤ B < 50)

C=CC(=O)N1CCN(c2nc(O[C@H](C)CN3CCC(OCCOCCOCCOCCOCCOCC(=O)N[C@H](C(=O)N4C[C@H](O)C[C@H]4C(=O)N[C@@H](C)c4ccc(-c5scnc5C)cc4)C(C)(C)C)CC3)nc3c(F)c(-c4cc(O)cc5ccccc45)c(Cl)cc23)CC1 [compound 402, (2S,4R)-1-((2S)-20-((1-((2R)-2-((4-(4-acryloylpiperazin-1-yl)-6-chloro-8-fluoro-7-(3-hydroxynaphthalen-1-yl)quinazolin-2-yl)oxy)propyl)piperidin-4-yl)oxy)-2-(tert-butyl)-4-oxo-6,9,12,15,18-pentaoxa-3-azaicosanoyl)-4-hydroxy-N-((S)-1-(4-(4-methylthiazol-5-yl)phenyl)ethyl)pyrrolidine-2-carboxamide]
DC50 (KRas [2]; SW1573 cells): ≥ 1 µM
Dmax (KRas [2]; SW1573 cells): ≤ 35%
Percent Degradation at Indicated Concentration (μM) (KRas [2]; SW1573 cells, 0.01 μM): C (Percent Degradation: C ≤ 35)
Percent Degradation at Indicated Concentration (μM) (KRas [2]; SW1573 cells, 0.03 μM): C (Percent Degradation: C ≤ 35)
Percent Degradation at Indicated Concentration (μM) (KRas [2]; SW1573 cells, 0.1 μM): C (Percent Degradation: C ≤ 35)
Percent Degradation at Indicated Concentration (μM) (KRas [2]; SW1573 cells, 0.3 μM): C (Percent Degradation: C ≤ 35)
Percent Degradation at Indicated Concentration (μM) (KRas [2]; SW1573 cells, 1 μM): C (Percent Degradation: C ≤ 35)
Percent Degradation at Indicated Concentration (μM) (KRas [3]; H2030 cells, 0.3 μM): C (Percent Degradation: C ≤ 35)
Percent Degradation at Indicated Concentration (μM) (KRas [3]; H2030 cells, 1 μM): C (Percent Degradation: C ≤ 35)
Percent Degradation at Indicated Concentration (μM) (KRas [3]; H2030 cells, 3 μM): C (Percent Degradation: C ≤ 35)
Dmax (KRas [3]; H2030 cells): ≤ 35%

C=CC(=O)N1CCN(c2nc(OCCN(C)CCOCCOCCOCCOCC(=O)N[C@H](C(=O)N3C[C@H](O)C[C@H]3C(=O)N[C@@H](C)c3ccc(-c4scnc4C)cc3)C(C)(C)C)nc3c(F)c(-c4cc(O)cc5ccccc45)c(Cl)cc23)CC1 [compound 473, (2S,4R)-1-((2S)-20-((4-(4-acryloylpiperazin-1-yl)-6-chloro-8-fluoro-7-(3-hydroxynaphthalen-1-yl)quinazolin-2-yl)oxy)-2-(tert-butyl)-18-methyl-4-oxo-6,9,12,15-tetraoxa-3,18-diazaicosanoyl)-4-hydroxy-N-((S)-1-(4-(4-methylthiazol-5-yl)phenyl)ethyl)pyrrolidine-2-carboxamide]
DC50 (KRas [2]; SW1573): 0.1 to 1 µM
Dmax (KRas [2]; SW1573): 35 to 70%
Percent Degradation at Indicated Concentration (μM) (KRas [2]; SW1573, 0.03 μM): C (Percent Degradation: C ≤ 35)
Percent Degradation at Indicated Concentration (μM) (KRas [2]; SW1573, 0.1 μM): C (Percent Degradation: C ≤ 35)
Percent Degradation at Indicated Concentration (μM) (KRas [2]; SW1573, 0.3 μM): B (35 < B < 70)
Percent Degradation at Indicated Concentration (μM) (KRas [2]; SW1573, 1 μM): B (35 < B < 70)
Percent Degradation at Indicated Concentration (μM) (KRas [2]; SW1573, 3 μM): B (35 < B < 70)
Percent Degradation at Indicated Concentration (μM) (KRas [2]; SW1573, 10 μM): B (35 < B < 70)
DC50 (KRas [3]; H2030): 0.1 to 1 µM
Percent Degradation at Indicated Concentration (μM) (KRas [3]; H2030, 0.03 μM): C (Percent Degradation: C ≤ 35)
Percent Degradation at Indicated Concentration (μM) (KRas [3]; H2030, 0.1 μM): C (Percent Degradation: C ≤ 35)
Percent Degradation at Indicated Concentration (μM) (KRas [3]; H2030, 0.3 μM): C (Percent Degradation: C ≤ 35)
Percent Degradation at Indicated Concentration (μM) (KRas [3]; H2030, 1 μM): C (Percent Degradation: C ≤ 35)
Percent Degradation at Indicated Concentration (μM) (KRas [3]; H2030, 3 μM): C (Percent Degradation: C ≤ 35)
Percent Degradation at Indicated Concentration (μM) (KRas [3]; H2030, 10 μM): C (Percent Degradation: C ≤ 35)
Dmax (KRas [3]): ≤ 35%
